# Source: article PMC12647645, “Structural interactions of BWC0977 with Klebsiella pneumoniae topoisomerase IV and biochemical basis of its broad-spectrum activity” (Communications Biology, 2025)
# Values joined by “and” are separate entries in the source; they are usually repeats but may differ in a detail not shown here. Identical values can stand only once.
# Legend:
# Human topo IIα = Human topo IIα (Homo sapiens, UniProt P11388); experiment: Human topo IIα decatenation assay; format: biochemical
# Protocol: Human topo IIα (0.9 nM) and topo IIß (2.2 nM) decatenation assays were performed following the same protocol used for bacterial topoisomerase IV decatenation assays. The assay buffer was made of 50 mM Tris. HCl (pH 7.5), 125 mM NaCl, 10 mM MgCl2, 5 mM DTT, and 100 μg/mL albumin.
# S. aureus gyrase = S. aureus gyrase (Staphylococcus aureus, UniProt P0A0K8+P20831); experiment: biochemical
# [1] = target: E. coli GyrA D82N mutant gyrase (Escherichia coli, UniProt P0AES4+P0AES6, D82N); experiment: biochemical; format: biochemical; details: for Gyrase supercoiling inhibition response: GyrA D82N gyrase
# [2] = target: E. coli GyrA M120K mutant gyrase (Escherichia coli, UniProt P0AES4+P0AES6, M120K); experiment: biochemical; format: biochemical; details: for Gyrase supercoiling inhibition response: GyrA M120K gyrase
# E. coli gyrase = target: T1, E. coli gyrase (Escherichia coli, UniProt P0AES4+P0AES6); format: biochemical; details: gyrase cleavage-complex assay
# T1 construct: purchased Inspiralis
# Protocol: Reactions were stopped by adding 3.8 μL of a stop solution containing 0.8 μL Proteinase K (20 mg/mL) and 3 μL SDS (2%), followed by incubation at 37 °C for 60 min. Afterward, 4 μL of STEB loading buffer was added, and samples were run on pre-stained 0.8% agarose gels containing 0.4 μg/mL ethidium bromide. […] The % nicked and linear DNA formed with varying compound concentrations was plotted for comparison.
# [3] = test system: E. coli MG1655 GyrA D82N, ParC WT; experiment: microbe, parasite or virus in culture; format: cell-based; details: Escherichia coli
# [4] = test system: E. coli MG1655 GyrA M120A, ParC M118A; experiment: microbe, parasite or virus in culture; format: cell-based; details: Escherichia coli
# [5] = test system: E. coli MG1655 GyrA R121K, ParC WT; experiment: microbe, parasite or virus in culture; format: cell-based; details: Escherichia coli
# [6] = test system: E. coli MG1655 GyrA WT, ParC R119K; experiment: microbe, parasite or virus in culture; format: cell-based; details: Escherichia coli
# E. coli ATCC 25922 [7] = experiment: MIC broth microdilution; format: cell-based; details: Escherichia coli, ATCC25922
# E. coli BAA 2469 = experiment: microbe, parasite or virus in culture; format: cell-based; details: Escherichia coli, BAA2469
# K. pneumoniae KPNIH1 = experiment: microbe, parasite or virus in culture; format: cell-based; details: Klebsiella pneumoniae
# A. baumannii ATCC 19606 = experiment: In vitro spontaneous resistance frequency; format: cell-based
# Protocol: (§1) Spontaneous resistance frequencies to BWC0977 were evaluated in E. coli ATCC 25922, P. aeruginosa ATCC 27853, and A. baumannii ATCC 19606. Mid-logarithmic phase cultures (~10^9 CFU/mL) were plated onto Luria-Bertani agar containing BWC0977 at 4×, 8×, and 16× the respective MICs. Plates were incubated at 37 °C for 24–36 h, and resistance frequencies were estimated by counting colony-forming units (CFUs) on the drug-containing plates. MICs of the isolated colonies were determined, and the gyrA, gyrB, parC, and parE genes were sequenced to assess for target-site mutations.
# E. coli ATCC 25922 [8] = experiment: In vitro spontaneous resistance frequency; format: cell-based
# Protocol: as §1
# S. aureus = details: ref 6 (Hameed P et al., 2024); cited from earlier work
# E. coli = details: ref 6 (Hameed P et al., 2024); cited from earlier work
# P. aeruginosa ATCC 27853 = details: >4× MIC; cited from earlier work
# [9] = compound 4.444 µM, source data Fig 6A/6B, 4.444 µM
# [10] = compound 13.333 µM, source data Fig 6A/6B, 13.333 µM
# [11] = compound 40 µM, source data Fig 6A/6B, 40 µM
# [12] = compound 120 µM, source data Fig 6A/6B, 120 µM
smiles,measurement,setting,value
Cn1c(=O)ccc2ccc(F)c(CCNC[C@H]3CN(c4cnc5c(n4)NC(=O)CO5)C(=O)O3)c21 [BWC0977],selectivity for bacterial enzymes over human topoisomerases IIα and IIβ,Human topo IIα,more than 5000 fold
same,IC50,Human topo IIα; read-out: IC50 Human topo IIα decatenation,113 ± 13 µM
same,Gyrase supercoiling inhibition response,"S. aureus gyrase; S. aureus gyrase, compound 0.0002 μM, source data Fig 2C, listed as 977, 0.0002 µM",1.69 and 1.99
same,inhibition at 0.0002 µM,"S. aureus gyrase; S. aureus gyrase, compound 0.0002 μM, source data Fig 2C, read-out: Gyrase supercoiling inhibition response",2.89%
same,Gyrase supercoiling inhibition response,"S. aureus gyrase; S. aureus gyrase, compound 0.001 μM, source data Fig 2C, listed as 977, 0.001 µM",21.39 and 19.98
same,inhibition at 0.001 µM,"S. aureus gyrase; S. aureus gyrase, compound 0.001 μM, source data Fig 2C, read-out: Gyrase supercoiling inhibition response",26.9%
same,Gyrase supercoiling inhibition response,"S. aureus gyrase; S. aureus gyrase, compound 0.004 μM, source data Fig 2C, listed as 977, 0.004 µM",39.52 and 42.6
same,inhibition at 0.004 µM,"S. aureus gyrase; S. aureus gyrase, compound 0.004 μM, source data Fig 2C, read-out: Gyrase supercoiling inhibition response",46.8%
same,Gyrase supercoiling inhibition response,"S. aureus gyrase; S. aureus gyrase, compound 0.012 μM, source data Fig 2C, listed as 977, 0.012 µM",60.4 and 63.65
same,inhibition at 0.012 µM,"S. aureus gyrase; S. aureus gyrase, compound 0.012 μM, source data Fig 2C, read-out: Gyrase supercoiling inhibition response",57.6%
same,Gyrase supercoiling inhibition response,"S. aureus gyrase; S. aureus gyrase, compound 0.037 μM, source data Fig 2C, listed as 977, 0.037 µM",62.46 and 64.07
same,inhibition at 0.037 µM,"S. aureus gyrase; S. aureus gyrase, compound 0.037 μM, source data Fig 2C, read-out: Gyrase supercoiling inhibition response",66.3%
same,Gyrase supercoiling inhibition response,"S. aureus gyrase; S. aureus gyrase, compound 0.111 μM, source data Fig 2C, listed as 977, 0.111 µM",73.28 and 76.49
same,inhibition at 0.111 µM,"S. aureus gyrase; S. aureus gyrase, compound 0.111 μM, source data Fig 2C, read-out: Gyrase supercoiling inhibition response",70.2%
same,Gyrase supercoiling inhibition response,"S. aureus gyrase; S. aureus gyrase, compound 0.333 μM, source data Fig 2C, listed as 977, 0.333 µM",87.57 and 81.68
same,inhibition at 0.333 µM,"S. aureus gyrase; S. aureus gyrase, compound 0.333 μM, source data Fig 2C, read-out: Gyrase supercoiling inhibition response",84%
same,Gyrase supercoiling inhibition response,"S. aureus gyrase; S. aureus gyrase, compound 1 μM, source data Fig 2C, listed as 977, 1 µM",89.66 and 78.1
same,inhibition at 1 µM,"S. aureus gyrase; S. aureus gyrase, compound 1 μM, source data Fig 2C, read-out: Gyrase supercoiling inhibition response",91.1%
same,Gyrase supercoiling inhibition response,"S. aureus gyrase; S. aureus gyrase, compound 3 μM, source data Fig 2C, listed as 977, 3 µM",98.25 and 99.54
same,inhibition at 3 µM,"S. aureus gyrase; S. aureus gyrase, compound 3 μM, source data Fig 2C, read-out: Gyrase supercoiling inhibition response",94.8%
same,IC50,S. aureus gyrase; Supplementary Fig 1G,9 nM
same,IC50,"[1]; Fig. 6, read-out: IC50 D82N gyrase supercoiling",8.07 µM
same,Gyrase supercoiling inhibition response,[1]; [9],46.06 and 47.14
same,Gyrase supercoiling inhibition response,[1]; [10],41.37 and 59.15 and 62.03
same,Gyrase supercoiling inhibition response,[1]; [11],73.59 and 74.94
same,Gyrase supercoiling inhibition response,[1]; [12],87.19 and 87.16
same,reduction in inhibition potency compared to wildtype gyrase,[1]; GyrA D82N vs WT,> 500 fold
same,inhibition at 4.444 µM,"[1]; read-out: Gyrase supercoiling inhibition response, GyrA D82N gyrase, compound 4.444 µM, source data Fig 6A/6B",30.7%
same,inhibition at 40 µM,"[1]; read-out: Gyrase supercoiling inhibition response, GyrA D82N gyrase, compound 40 µM, source data Fig 6A/6B",55.7%
same,inhibition at 120 µM,"[1]; read-out: Gyrase supercoiling inhibition response, GyrA D82N gyrase, compound 120 µM, source data Fig 6A/6B",78.8%
same,IC50,"[2]; Fig. 6, read-out: IC50 M120K gyrase supercoiling",116 µM
same,Gyrase supercoiling inhibition response,[2]; [9],22.36 and 14.93
same,Gyrase supercoiling inhibition response,[2]; [10],30.98 and 24.28
same,Gyrase supercoiling inhibition response,[2]; [11],42.55 and 34.32
same,Gyrase supercoiling inhibition response,[2]; [12],58.34 and 49.21
same,reduction in inhibition potency compared to wildtype gyrase,[2]; GyrA M120K vs WT,> 500 fold
same,inhibition at 4.444 µM,"[2]; read-out: Gyrase supercoiling inhibition response, GyrA M120K gyrase, compound 4.444 µM, source data Fig 6A/6B",20.2%
same,inhibition at 13.333 µM,"[2]; read-out: Gyrase supercoiling inhibition response, GyrA M120K gyrase, compound 13.333 µM, source data Fig 6A/6B",27.2%
same,inhibition at 40 µM,"[2]; read-out: Gyrase supercoiling inhibition response, GyrA M120K gyrase, compound 40 µM, source data Fig 6A/6B",34.7%
same,inhibition at 120 µM,"[2]; read-out: Gyrase supercoiling inhibition response, GyrA M120K gyrase, compound 120 µM, source data Fig 6A/6B",56.3%
same,type of DNA breaks induced,E. coli gyrase,single-strand DNA breaks
same,MIC,[3],0.08 µg/mL
same,MIC,[4],0.0625 µg/mL
same,MIC,[5],0.01 µg/mL
same,MIC,[6],0.026 µg/mL
same,MIC,E. coli ATCC 25922 [7],0.06 µg/mL
same,MIC,E. coli BAA 2469,0.01 µg/mL
same,MIC,K. pneumoniae KPNIH1,1 µg/mL
same,number of resistant mutant colonies,A. baumannii ATCC 19606; 0.6 μg/mL (4× MIC),five
same,resistance frequency,A. baumannii ATCC 19606; 4× MIC,less than 1 × 10^−9
same,MIC increase of resistant colonies,A. baumannii ATCC 19606; colonies selected at 4× MIC of the same compound,four-fold
same,resistance frequency,E. coli ATCC 25922 [8]; 4× MIC,less than 1 × 10^−9
same,sensitivity of ciprofloxacin-resistant mutants (GyrA S83L or D87Y),E. coli ATCC 25922 [8]; mutants selected with ciprofloxacin 0.05 μg/mL,remained sensitive
same,MIC90 against diverse global isolates,S. aureus,0.03 µg/mL
same,MIC90 against diverse global isolates,E. coli,0.5 µg/mL
same,resistant colonies on exposure,P. aeruginosa ATCC 27853,no resistant colonies
